Measurements as given in US20140309265A1, “MACROCYCLIC COMPOUNDS FOR INHIBITION OF INHIBITORS OF APOPTOSIS” (Ensemble Therapeutics, priority 2011, published 2014).
pIC50: −log10 of the molar value.

Tests used:
[1] = biological target: N-His-Tb-BIR3(241-356, XIAP) (Homo sapiens, UniProt P98170); test: XIAP-BIR3 SMAC Peptide Fluorescence Polarization Assay (FPA); format: binding
[2] = biological target: T1, XIAP His-BIR2 (124-240/C202A/C213G) (Homo sapiens, UniProt P98170, C202A/C213G); test: XIAP-BIR2/SMAC Peptide AlphaScreen Assay; format: binding; conditions: XIAP BIR2, AlphaScreen, Table 2; read-out: BIR2 IC50
T1 construct: additions of His-BIR2 (124-240/C202A/C213G), Biotinylated SMAC peptide
T1 sequence (P98170 124-240 C202A/C213G): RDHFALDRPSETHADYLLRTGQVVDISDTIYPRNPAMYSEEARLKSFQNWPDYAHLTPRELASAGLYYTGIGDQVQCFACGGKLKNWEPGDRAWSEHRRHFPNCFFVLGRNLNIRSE
Procedure: A. XIAP-BIR2/SMAC Peptide AlphaScreen Assay Assays were performed in white, flat-bottom, 384-well ProxiPlates (Perkin Elmer). […] The reaction was incubated at room temperature for 60 minutes. After 60 minutes, 2.5 μL of Alphascreen detection reagent (Perkin Elmer) was added to the reaction mixture and incubated at room temperature in the dark for 120 minutes. The Alphascreen signal generated by the reaction was detected on the Envision Plate Reader. […] Compounds were dissolved at 10 mM in dimethylsulfoxide (DMSO) and evaluated at eleven concentrations. IC50 values were derived by non-linear regression analysis.

Sequence of N-His-Tb-BIR3(241-356, XIAP) (P98170 241-356): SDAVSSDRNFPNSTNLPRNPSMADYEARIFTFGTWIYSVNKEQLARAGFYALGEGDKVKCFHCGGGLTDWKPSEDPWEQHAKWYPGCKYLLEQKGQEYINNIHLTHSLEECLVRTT

Compound CN[C@@H](C)C(=O)N[C@H](C(=O)N1C[C@@H]2C[C@H]1C(=O)N[C@@H](Cc1csc3ccccc13)C(=O)N[C@H](C(=O)O)Cc1ccc(cc1)OCc1cn(nn1)[C@H]1C[C@@H](C(=O)N[C@@H](Cc3csc4ccccc34)C(=O)N[C@H](C(=O)O)Cc3ccc(cc3)OCc3cn2nn3)N(C(=O)[C@@H](NC(=O)[C@H](C)NC)C(C)C)C1)C(C)C [Compound 124] has a pIC50 [1] greater than 7.30 and a pIC50 [2] greater than 5.70.

For CN[C@@H](C)C(=O)N[C@H](C(=O)N1C[C@@H]2C[C@H]1C(=O)N[C@@H](Cc1c[nH]c3ccccc13)C(=O)N[C@H](C(=O)O)Cc1ccc(cc1)OCc1cn(nn1)[C@H]1C[C@@H](C(=O)N[C@@H](Cc3c[nH]c4ccccc34)C(=O)N[C@H](C(=O)O)Cc3ccc(cc3)OCc3cn2nn3)N(C(=O)[C@@H](NC(=O)[C@H](C)NC)C(C)C)C1)C(C)C [Compound 125], the pIC50 [1] was greater than 7.30 and the pIC50 [2] was greater than 5.70.

In the case of C=CCOc1ccc(C[C@@H]2NC(=O)[C@@H]3C[C@@H](CN3C(=O)[C@@H](NC(=O)[C@H](C)NC)C(C)C)n3cc(nn3)COc3ccc(cc3)C[C@@H](C(=O)O)NC(=O)[C@H](Cc3ccc(OCC=C)cc3)NC(=O)[C@@H]3C[C@@H](CN3C(=O)[C@@H](NC(=O)[C@H](C)NC)C(C)C)n3cc(nn3)COc3ccc(cc3)C[C@@H](C(=O)O)NC2=O)cc1 [Compound 126], the pIC50 [1] was 7.00 to 7.30 and the pIC50 [2] was 4.92 to 5.70.

Work on CN[C@@H](C)C(=O)N[C@H](C(=O)N1C[C@@H]2C[C@H]1C(=O)N[C@@H](Cc1cccc(C(F)(F)F)c1)C(=O)N[C@H](C(=O)O)Cc1ccc(cc1)OCc1cn(nn1)[C@H]1C[C@@H](C(=O)N[C@@H](Cc3cccc(C(F)(F)F)c3)C(=O)N[C@H](C(=O)O)Cc3ccc(cc3)OCc3cn2nn3)N(C(=O)[C@@H](NC(=O)[C@H](C)NC)C(C)(C)C)C1)C(C)(C)C [Compound 129] yielded a pIC50 [1] greater than 7.30 and a pIC50 [2] greater than 5.70.

In the case of CN[C@@H](C)C(=O)N[C@H](C(=O)N1C[C@@H]2C[C@H]1C(=O)N[C@@H](Cc1cccc(C(F)(F)F)c1)C(=O)N[C@H](C(=O)O)Cc1ccc(cc1)OCc1cn(nn1)[C@H]1C[C@@H](C(=O)N[C@@H](Cc3cccc(C(F)(F)F)c3)C(=O)N[C@H](C(=O)O)Cc3ccc(cc3)OCc3cn2nn3)N(C(=O)[C@@H](NC(=O)[C@H](C)NC)C2CCCCC2)C1)C1CCCCC1 [Compound 130], the pIC50 [1] was greater than 7.30 and the pIC50 [2] was 4.92 to 5.70.

CN[C@@H](C)C(=O)N[C@H](C(=O)N1C[C@@H]2C[C@H]1C(=O)N[C@@H](Cc1ccc(OC)c(OC)c1)C(=O)N[C@H](C(=O)O)Cc1ccc(cc1)OCc1cn(nn1)[C@H]1C[C@@H](C(=O)N[C@@H](Cc3ccc(OC)c(OC)c3)C(=O)N[C@H](C(=O)O)Cc3ccc(cc3)OCc3cn2nn3)N(C(=O)[C@@H](NC(=O)[C@H](C)NC)C(C)(C)C)C1)C(C)(C)C [Compound 131] gave a pIC50 [1] of less than 7.00 and a pIC50 [2] of 4.92 to 5.70.

For CN[C@@H](C)C(=O)N[C@H](C(=O)N1C[C@@H]2C[C@H]1C(=O)N[C@@H](Cc1ccc(OC)c(OC)c1)C(=O)N[C@H](C(=O)O)Cc1ccc(cc1)OCc1cn(nn1)[C@H]1C[C@@H](C(=O)N[C@@H](Cc3ccc(OC)c(OC)c3)C(=O)N[C@H](C(=O)O)Cc3ccc(cc3)OCc3cn2nn3)N(C(=O)[C@@H](NC(=O)[C@H](C)NC)C2CCCCC2)C1)C1CCCCC1 [Compound 132], the pIC50 [1] was less than 7.00 and the pIC50 [2] was less than 4.92.

Work on CN[C@@H](C)C(=O)N[C@H](C(=O)N1C[C@@H]2C[C@H]1C(=O)N[C@@H](Cc1ccccc1)C(=O)N(C)[C@H](C(=O)O)Cc1ccc(cc1)OCc1cn(nn1)[C@H]1C[C@@H](C(=O)N[C@@H](Cc3ccccc3)C(=O)N(C)[C@H](C(=O)O)Cc3ccc(cc3)OCc3cn2nn3)N(C(=O)[C@@H](NC(=O)[C@H](C)NC)C(C)C)C1)C(C)C [Compound 133] yielded a pIC50 [1] greater than 7.30 and a pIC50 [2] greater than 5.70.

In the case of CN[C@@H](C)C(=O)N[C@H](C(=O)N1C[C@@H]2C[C@H]1C(=O)N[C@@H](Cc1ccc3ccccc3c1)C(=O)N(C)[C@H](C(=O)O)Cc1ccc(cc1)OCc1cn(nn1)[C@H]1C[C@@H](C(=O)N[C@@H](Cc3ccc4ccccc4c3)C(=O)N(C)[C@H](C(=O)O)Cc3ccc(cc3)OCc3cn2nn3)N(C(=O)[C@@H](NC(=O)[C@H](C)NC)C(C)C)C1)C(C)C [Compound 134], the pIC50 [1] was 7.00 to 7.30 and the pIC50 [2] was greater than 5.70.
